Assay results as given in patent publication US20240316012A1, “METHODS FOR TREATING LYMPHOMA” (Northwestern University, priority 2023, published 2024).

Tested on: H3K27 acetylation
Experiment: Flow cytometry for H3K27ac after in vitro culture with inhibitors
Assay type: cell-based, mouse
From the text: Data are normalized to viable cell number and z-scores per metabolite. […] P=two-sided Student's t-test. The data are presented as the mean±SEM and individual data points for each animal. Cross indicates death of the animal. […] P=two-sided Student's t-test. Shown are the mean±SD and individual data points. […] Data are presented as mean±SD and individual data points. […] P=paired two-sided Student's t-test. Data are presented as the mean±SD. […] Data was normalized as in (a). P=two-sided Student's t-test. The data are presented as the mean±SEM. […] Experiment as in (h) (n=3 mice genotype). Data was normalized as in (a). P=two-sided Student's t-test. Data are presented as the mean±SD. FIGS. 3-D, Representative data from two independent experiments with n=3 biological replicates per group. FIG. 3E, Representative data from two independent experiments with two biological replicates per group. FIG. 3F, Representative data from two independent experiments. FIG. 3G, Representative data from two independent experiments with three biological replicates per group. FIG. 3H, Representative data from one experiment with four biological replicates per group. FIG. 3I, Representative data from one experiment with three biological replicates per group FIGS. 4A-4H show ACLY is a critical effector molecule downstream of PD-1. […] ITK-SYK^+ cells were FACS-sorted from ITK-[…]2 mice on d5 after TAM and 12 h anti-PD-L1 or isotype control antibody treatment (i.p., 200 μg). P=paired two-sided Student's t-test. Data are presented as the mean±SD. […] Spleen-derived single-cell suspensions were FACS-sorted from ITK-[…]2 mice on d5 after TAM and cultured in vitro overnight with anti-PD-L1 or isotype control antibodies and the PI3K inhibitors (“iPI3K”) Wortmannin (20 nM), LY294002 (20 μM), or DMSO. […] Spleen-derived lymphocytes, FACS-sorted from ITK-[…]2 and ITK-[…]2; Pdcd1^-/- mice on d5 after TAM were incubated for three days in vitro. P=two-sided Student's t-test. Data are presented as the mean±SD. […] Protein lysates were generated after 48 h in vitro culture. RNP, ribonucleoprotein. […] P=two-sided Logrank-test. […] ITK-SYK^+ cells were FACS-sorted from ITK-[…]2 (“Pdcd1^+/+”) and ITK-[…]2; Pdcd1^-/- (“Pdcd1^-/-”) mice on d5 after TAM, fixed, and processed for anti-H3K27ac ChIP-seq analysis. ChIP-seq, chromatin immunoprecipitation sequencing; TSS, transcription start site. FIG. 4B, Representative data from three independent experiments with three biological replicates per group. FIG. 4C, Representative data from two independent experiments with two biological replicates. FIGS. 4D and 4E, Representative data from 3 independent experiments. FIGS. 4F and 4G, Data from one experiment with n=5 mice per group. […] (8752, CST), and assessed by flow cytometry. […]

SMILES	H3K27 acetylation in Pdcd1 deficient lymphoma cells (2-DG 1 mM, 4 h in vitro vs DMSO, p=0.0003)	histone acetylation (H3K27ac) in ITK-SYK+ cells (BMS-303141 15 μM vs DMSO vehicle control, 3 hours, 4 h)	dependency of H3K27ac on ACLY function in cells with pharmacologically inactivated PD-1 pathway (anti-PD-L1 vs isotype control pretreated mice, BMS-303141 15 μM, p=0.0131)
O=CC[C@@H](O)[C@H](O)[C@H](O)CO [2-DG, 2-deoxy-D-glucose]	reduction in H3K27 acetylation		
COc1ccc(-c2ccccc2)cc1NS(=O)(=O)c1cc(Cl)cc(Cl)c1O [BMS-303141]		reduced histone acetylation	significantly higher
